Reference: patent US8455662B2, “Formulations for benzimidazolyl pyridyl ethers” (Novartis AG, priority 2006, dated 2013)

Assay: Aqueous solubility of API at various pHs
Format: physicochemical

Compound	solubility (aqueous medium, pH 7, aqueous buffer) [µg/mL]	Solubility in water (water)
Cn1c(Nc2ccc(C(F)(F)F)cc2)nc2cc(Oc3ccnc(-c4ncc(C(F)(F)F)[nH]4)c3)ccc21 [API, {1-methyl-5-[2-(5-trifluoromethyl-1H-imidazol-2-yl)-pyridin-4-yloxy]-1H-benzoimidazol-2-yl}-(4-trifluoromethyl-phenyl)amine]	< 1	–
Cn1c(Nc2ccc(C(F)(F)F)cc2)nc2cc(Oc3ccnc(-c4ncc(C(F)(F)F)[nH]4)c3)ccc21 [{1-Methyl-5-[2-(5-trifluoromethyl-1H-imidazol-2-yl)-pyridin-4-yloxy]-1H-benzoimidazol-2-yl}-(4-trifluoromethyl-phenyl)amine]	–	practically insoluble
